Reference: ChEMBL document CHEMBL3044929, “Insecticidal activity of sesquiterpenes skeleton synthesized by the conventional Robinson annulations reaction on Drosophila melanogaster” (2013)

Legend:
Drosophila melanogaster [1] = test: Insecticidal activity against first-instar larval stage of Drosophila melanogaster fed with artificial diet containing compound assessed as mortality measured after 24 hr; format: functional; details: read-out: LD50 (the source's name)
Drosophila melanogaster [2] = test: Insecticidal activity against first-instar larval stage of Drosophila melanogaster fed with artificial diet containing compound assessed as mortality at 37.6 umol/ml measured after 72 hr (reference value: 3.33 +/-0.33%); format: functional
Drosophila melanogaster [3] = test: Insecticidal activity against first-instar larval stage of Drosophila melanogaster fed with artificial diet containing compound assessed as mortality at 37.6 umol/ml measured after 48 hr (reference value: 0%); format: functional
Drosophila melanogaster [4] = test: Insecticidal activity against first-instar larval stage of Drosophila melanogaster fed with artificial diet containing compound assessed as mortality at 37.6 umol/ml measured after 24 hr (reference value: 0%); format: functional
Drosophila melanogaster [5] = test: Insecticidal activity against first-instar larval stage of Drosophila melanogaster fed with artificial diet containing compound assessed as mortality at 18.3 umol/ml measured after 48 hr (reference value: 0%); format: functional
Drosophila melanogaster [6] = test: Insecticidal activity against first-instar larval stage of Drosophila melanogaster fed with artificial diet containing compound assessed as mortality at 18.3 umol/ml measured after 24 hr (reference value: 0%); format: functional
Drosophila melanogaster [7] = test: Insecticidal activity against first-instar larval stage of Drosophila melanogaster fed with artificial diet containing compound assessed as mortality at 8.3 umol/ml measured after 72 hr (reference value: 0%); format: functional
Drosophila melanogaster [8] = test: Insecticidal activity against first-instar larval stage of Drosophila melanogaster fed with artificial diet containing compound assessed as mortality at 8.3 umol/ml measured after 48 hr (reference value: 0%); format: functional
Drosophila melanogaster [9] = test: Insecticidal activity against first-instar larval stage of Drosophila melanogaster fed with artificial diet containing compound assessed as mortality at 8.3 umol/ml measured after 24 hr (reference value: 0%); format: functional
Drosophila melanogaster [10] = test: Insecticidal activity against first-instar larval stage of Drosophila melanogaster fed with artificial diet containing compound assessed as mortality at 18.3 umol/ml measured after 72 hr (reference value: 0%); format: functional
Drosophila melanogaster [11] = test: Insecticidal activity against first-instar larval stage of Drosophila melanogaster fed with artificial diet containing compound assessed as mortality at 37.6 umol/ml measured after 144 hr; format: functional
Drosophila melanogaster [12] = test: Insecticidal activity against first-instar larval stage of Drosophila melanogaster fed with artificial diet containing compound assessed as mortality at 37.6 umol/ml measured after 120 hr; format: functional
Drosophila melanogaster [13] = test: Insecticidal activity against first-instar larval stage of Drosophila melanogaster fed with artificial diet containing compound assessed as mortality at 37.6 umol/ml measured after 96 hr; format: functional
Drosophila melanogaster [14] = test: Insecticidal activity against first-instar larval stage of Drosophila melanogaster fed with artificial diet containing compound assessed as mortality at 18.3 umol/ml measured after 144 hr; format: functional
Drosophila melanogaster [15] = test: Insecticidal activity against first-instar larval stage of Drosophila melanogaster fed with artificial diet containing compound assessed as mortality at 18.3 umol/ml measured after 120 hr; format: functional
Drosophila melanogaster [16] = test: Insecticidal activity against first-instar larval stage of Drosophila melanogaster fed with artificial diet containing compound assessed as mortality at 18.3 umol/ml measured after 96 hr; format: functional
Drosophila melanogaster [17] = test: Insecticidal activity against first-instar larval stage of Drosophila melanogaster fed with artificial diet containing compound assessed as mortality at 8.3 umol/ml measured after 144 hr; format: functional
Drosophila melanogaster [18] = test: Insecticidal activity against first-instar larval stage of Drosophila melanogaster fed with artificial diet containing compound assessed as mortality at 8.3 umol/ml measured after 120 hr; format: functional
Drosophila melanogaster [19] = test: Insecticidal activity against first-instar larval stage of Drosophila melanogaster fed with artificial diet containing compound assessed as mortality at 8.3 umol/ml measured after 96 hr; format: functional
Spodoptera frugiperda = test: Insecticidal activity against Spodoptera frugiperda (fall armyworm) larvae assessed as mortality at 25 ppm; format: functional
[20] = target: Acetylcholinesterase (Spodoptera litura) (UniProt C5IU80); test: Inhibition of acetylcholinesterase in Spodoptera frugiperda (fall armyworm) at 15 ppm
Sequence of Acetylcholinesterase (Spodoptera litura) (C5IU80 as listed by the source): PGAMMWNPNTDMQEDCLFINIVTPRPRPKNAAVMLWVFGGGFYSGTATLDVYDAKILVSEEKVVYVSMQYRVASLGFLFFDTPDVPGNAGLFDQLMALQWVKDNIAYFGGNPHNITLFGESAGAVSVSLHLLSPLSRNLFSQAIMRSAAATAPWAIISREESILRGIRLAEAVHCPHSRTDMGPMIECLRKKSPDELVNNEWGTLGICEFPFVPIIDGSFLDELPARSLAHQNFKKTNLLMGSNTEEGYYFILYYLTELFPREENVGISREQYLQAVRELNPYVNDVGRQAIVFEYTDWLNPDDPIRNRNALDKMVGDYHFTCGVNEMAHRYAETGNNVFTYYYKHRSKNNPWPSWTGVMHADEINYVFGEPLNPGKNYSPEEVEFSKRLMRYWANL

Drosophila melanogaster [21] = test: Insecticidal activity against first-instar larval stage of Drosophila melanogaster fed with artificial diet containing compound assessed as mortality measured after 72 hr; format: functional; details: read-out: LD50 (the source's name)

Compound	mortality (Drosophila melanogaster [2]) [%]	mortality (Drosophila melanogaster [3]) [%]	mortality (Drosophila melanogaster [4]) [%]	mortality (Drosophila melanogaster [5]) [%]	mortality (Drosophila melanogaster [6]) [%]	mortality (Drosophila melanogaster [7]) [%]	mortality (Drosophila melanogaster [8]) [%]	mortality (Drosophila melanogaster [9]) [%]	mortality (Drosophila melanogaster [10]) [%]	mortality (Drosophila melanogaster [11]) [%]	mortality (Drosophila melanogaster [12]) [%]	mortality (Drosophila melanogaster [13]) [%]	mortality (Drosophila melanogaster [14]) [%]	mortality (Drosophila melanogaster [15]) [%]	mortality (Drosophila melanogaster [16]) [%]	mortality (Drosophila melanogaster [17]) [%]	mortality (Drosophila melanogaster [18]) [%]	mortality (Drosophila melanogaster [19]) [%]	further results
C=C(C)[C@@H]1CC[C@@]2(C)CCC(O)C(C)=C2C1 (mixture of isomers)	100	96	90	86.7	70	100	70	50	100										LC50 (Drosophila melanogaster [1]): 8.78 mM
C=C(C)[C@@H]1CC[C@]2(C)CCC(=O)C[C@]2(O)C1 [5-HYDROXY-14-NOREUDESM-11-EN-3-ONE]	16.6	13.3	13	6.7	3.3	6.7	6.7	0	13.3	23.3	23.3	23.3	20	20	20	16.6	16.6	6.6	
C=C(C)[C@@H]1CC[C@]2(C)CCC(=O)C(C)=C2C1 [(-)-10-EPI-ALPHA-CYPERONE]	0.11	0.11	0	0	0	0	0	0	0										
CC(=O)OC[C@H]1C[C@@H](OC(C)=O)[C@@H](OC(C)=O)[C@@]2(C)[C@H](OC(=O)c3ccccc3)[C@@H](OC(C)=O)[C@@H]3[C@H](OC(C)=O)[C@]12OC3(C)C																			mortality at 25 ppm (Spodoptera frugiperda): 100%
CC1=C2C[C@H](C(C)(O)CO)CC[C@@]2(C)CCC1=O (stereo not given in full)	20	20	20	10	10	10	10	10	0	23	23	23	23	23	23	10	10	10	
CC(=O)OC[C@H]1C[C@@H](OC(C)=O)[C@@H](OC(C)=O)[C@@]2(C)[C@H](OC(=O)c3ccco3)[C@@H](OC(C)=O)[C@@H]3[C@H](OC(C)=O)[C@]12OC3(C)C																			inhibition [20]: 100%; mortality at 25 ppm (Spodoptera frugiperda): 100%
C=C(C)[C@@H]1CC[C@]2(C)CCC(=O)[C@H](C)[C@]2(O)C1 [5ALPHA-HYDROXY-14-EUDESM-11-EN-3-ONE]	33.3	0	0	0	0	0	0	0	13.3	40	36.6	36.6	26.7	20	20	23.3	16.7	16.7	LC50 (Drosophila melanogaster [21]): 42.6 mM
C=C(C)[C@@H]1CC[C@@]2(C)CCC(=O)C(C)=C2C1 [ALPHA-CYPERONE]	100	100	96.7	100	83	100	76.6	70	100										LC50 (Drosophila melanogaster [1]): 4.99 mM
C=C(C)[C@@H]1CC[C@@]2(C)CC[C@H](O)C(C)=C2C1 [3BETA-HYDROXY-CYPERONE]	100	96	80	73.3	36.7	50	50	20	73.3										LC50 (Drosophila melanogaster [21]): 9.36 mM
C=C(C)[C@@H]1CC[C@@]2(C)CC[C@@H](O)C(C)=C2C1 [3ALPHA-HYDROXY-CYPERONE]	6.7	6.7	0	0	0	0	0	0	3.3	10	10	10	6.6	3.3	3.3	0	0	0	
